# What was measured:
# Assay in all cases: KINOMEscan competition binding
# Conditions in all cases: compound 10.0 µM; call rule not given here
# [1] = biological target: EPHB3 (human) (UniProt P54753)
# [2] = biological target: IGF1R (human) (UniProt P08069)
# [3] = biological target: CDK5 (human) (UniProt Q00535)
# [4] = biological target: MAP4K4 (human) (UniProt O95819)
# [5] = biological target: GSK3A (human) (UniProt P49840)
# [6] = biological target: ACVRL1 (human) (UniProt P37023)
# [7] = biological target: MAP4K1 (human) (UniProt Q92918)
# [8] = biological target: CAMK1D (human) (UniProt Q8IU85)
# [9] = biological target: BTK (human) (UniProt Q06187)
# [10] = biological target: FGFR2 (human) (UniProt P21802)
# [11] = biological target: LYN (human) (UniProt P07948)
# [12] = biological target: PDGFRB (human) (UniProt P09619)
# [13] = biological target: TNK2 (human) (UniProt Q07912)
# [14] = biological target: RPS6KA3 KD1 (human) (UniProt P51812)
# [15] = biological target: CDK2 (human) (UniProt P24941)
# [16] = biological target: ALK (human) (UniProt Q9UM73)
# [17] = biological target: NEK6 (human) (UniProt Q9HC98)
# [18] = biological target: JAK2 JH1 catalytic (human) (UniProt O60674)
# [19] = biological target: STK38L (human) (UniProt Q9Y2H1)
# [20] = biological target: FGFR3 (human) (UniProt P22607)
# [21] = biological target: EPHA8 (human) (UniProt P29322)
# [22] = biological target: TLK1 (human) (UniProt Q9UKI8)
# [23] = biological target: CSNK2A1 (human) (UniProt P68400)
# [24] = biological target: AURKA (human) (UniProt O14965)
# [25] = biological target: NTRK2 (human) (UniProt Q16620)
# [26] = biological target: EPHA7 (human) (UniProt Q15375)
# [27] = biological target: STK17A (human) (UniProt Q9UEE5)
# [28] = biological target: PRKACB (human) (UniProt P22694)
# [29] = biological target: RPS6KA4 KD1 (human) (UniProt O75676)
# [30] = biological target: PRKAA2 (human) (UniProt P54646)
# [31] = biological target: MAPK12 (human) (UniProt P53778)
# [32] = biological target: MERTK (human) (UniProt Q12866)
# [33] = biological target: CSNK1D (human) (UniProt P48730)
# [34] = biological target: LIMK2 (human) (UniProt P53671)
# [35] = biological target: LTK (human) (UniProt P29376)
# [36] = biological target: BMX (human) (UniProt P51813)
# [37] = biological target: STK10 (human) (UniProt O94804)
# [38] = biological target: STK33 (human) (UniProt Q9BYT3)
# [39] = biological target: SIK2 (human) (UniProt Q9H0K1)
# [40] = biological target: SRPK1 (human) (UniProt Q96SB4)
# Sequence of STK10 (human) (O94804 whole entry, looked up): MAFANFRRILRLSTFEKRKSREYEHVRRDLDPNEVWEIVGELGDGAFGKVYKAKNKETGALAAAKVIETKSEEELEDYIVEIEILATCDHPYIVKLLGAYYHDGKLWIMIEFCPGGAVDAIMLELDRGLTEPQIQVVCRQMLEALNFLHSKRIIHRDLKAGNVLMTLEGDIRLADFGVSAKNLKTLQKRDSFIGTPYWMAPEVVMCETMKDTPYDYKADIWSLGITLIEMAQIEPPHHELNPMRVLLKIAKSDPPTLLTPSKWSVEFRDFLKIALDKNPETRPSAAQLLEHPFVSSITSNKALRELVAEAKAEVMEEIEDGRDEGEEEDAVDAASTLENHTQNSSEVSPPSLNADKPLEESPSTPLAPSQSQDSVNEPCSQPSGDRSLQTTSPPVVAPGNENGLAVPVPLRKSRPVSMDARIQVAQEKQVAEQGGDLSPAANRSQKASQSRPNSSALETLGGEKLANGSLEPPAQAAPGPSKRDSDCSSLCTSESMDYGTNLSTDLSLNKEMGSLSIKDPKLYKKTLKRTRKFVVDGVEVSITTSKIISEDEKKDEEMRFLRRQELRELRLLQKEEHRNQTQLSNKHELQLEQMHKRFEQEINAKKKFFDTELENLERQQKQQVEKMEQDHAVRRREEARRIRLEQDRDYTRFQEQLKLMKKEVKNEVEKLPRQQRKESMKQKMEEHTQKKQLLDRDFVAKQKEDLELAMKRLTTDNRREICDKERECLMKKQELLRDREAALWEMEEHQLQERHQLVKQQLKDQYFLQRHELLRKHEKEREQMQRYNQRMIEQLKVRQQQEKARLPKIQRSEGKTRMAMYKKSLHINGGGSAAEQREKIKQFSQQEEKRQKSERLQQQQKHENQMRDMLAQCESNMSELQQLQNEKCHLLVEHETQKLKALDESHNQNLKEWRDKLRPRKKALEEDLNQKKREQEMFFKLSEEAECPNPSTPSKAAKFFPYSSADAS
# Sequence of MAPK12 (human) (P53778 whole entry, looked up): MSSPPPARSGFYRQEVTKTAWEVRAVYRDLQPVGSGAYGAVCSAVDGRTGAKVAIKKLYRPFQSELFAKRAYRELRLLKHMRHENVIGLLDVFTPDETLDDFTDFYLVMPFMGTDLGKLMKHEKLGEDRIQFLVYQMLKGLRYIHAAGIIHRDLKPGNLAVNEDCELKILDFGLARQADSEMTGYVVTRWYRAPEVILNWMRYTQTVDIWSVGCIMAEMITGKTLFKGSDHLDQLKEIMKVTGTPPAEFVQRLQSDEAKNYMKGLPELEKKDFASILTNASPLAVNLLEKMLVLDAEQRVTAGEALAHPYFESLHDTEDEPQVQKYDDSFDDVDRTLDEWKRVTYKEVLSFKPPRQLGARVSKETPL
# Sequence of MAP4K1 (human) (Q92918 whole entry, looked up): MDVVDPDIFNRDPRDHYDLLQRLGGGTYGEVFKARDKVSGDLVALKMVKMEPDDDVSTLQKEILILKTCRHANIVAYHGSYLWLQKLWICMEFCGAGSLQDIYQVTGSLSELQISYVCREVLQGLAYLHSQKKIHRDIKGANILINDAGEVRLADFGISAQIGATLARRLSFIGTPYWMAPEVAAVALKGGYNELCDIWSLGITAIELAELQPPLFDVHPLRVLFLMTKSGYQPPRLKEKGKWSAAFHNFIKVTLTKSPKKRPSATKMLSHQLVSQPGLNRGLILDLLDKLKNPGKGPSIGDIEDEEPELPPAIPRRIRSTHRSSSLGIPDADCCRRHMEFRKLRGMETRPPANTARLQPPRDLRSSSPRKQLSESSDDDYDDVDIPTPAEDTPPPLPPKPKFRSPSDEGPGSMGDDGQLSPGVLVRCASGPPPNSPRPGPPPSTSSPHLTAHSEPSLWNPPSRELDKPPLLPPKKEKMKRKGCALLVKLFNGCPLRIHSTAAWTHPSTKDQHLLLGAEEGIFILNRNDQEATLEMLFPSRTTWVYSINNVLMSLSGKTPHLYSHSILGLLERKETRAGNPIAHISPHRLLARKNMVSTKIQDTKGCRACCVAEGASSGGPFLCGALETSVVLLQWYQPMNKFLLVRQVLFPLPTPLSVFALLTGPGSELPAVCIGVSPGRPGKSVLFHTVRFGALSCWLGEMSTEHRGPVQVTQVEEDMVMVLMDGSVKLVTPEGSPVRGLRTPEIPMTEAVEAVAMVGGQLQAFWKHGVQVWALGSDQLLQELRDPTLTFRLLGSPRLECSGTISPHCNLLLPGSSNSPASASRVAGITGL
# Sequence of SIK2 (human) (Q9H0K1 whole entry, looked up): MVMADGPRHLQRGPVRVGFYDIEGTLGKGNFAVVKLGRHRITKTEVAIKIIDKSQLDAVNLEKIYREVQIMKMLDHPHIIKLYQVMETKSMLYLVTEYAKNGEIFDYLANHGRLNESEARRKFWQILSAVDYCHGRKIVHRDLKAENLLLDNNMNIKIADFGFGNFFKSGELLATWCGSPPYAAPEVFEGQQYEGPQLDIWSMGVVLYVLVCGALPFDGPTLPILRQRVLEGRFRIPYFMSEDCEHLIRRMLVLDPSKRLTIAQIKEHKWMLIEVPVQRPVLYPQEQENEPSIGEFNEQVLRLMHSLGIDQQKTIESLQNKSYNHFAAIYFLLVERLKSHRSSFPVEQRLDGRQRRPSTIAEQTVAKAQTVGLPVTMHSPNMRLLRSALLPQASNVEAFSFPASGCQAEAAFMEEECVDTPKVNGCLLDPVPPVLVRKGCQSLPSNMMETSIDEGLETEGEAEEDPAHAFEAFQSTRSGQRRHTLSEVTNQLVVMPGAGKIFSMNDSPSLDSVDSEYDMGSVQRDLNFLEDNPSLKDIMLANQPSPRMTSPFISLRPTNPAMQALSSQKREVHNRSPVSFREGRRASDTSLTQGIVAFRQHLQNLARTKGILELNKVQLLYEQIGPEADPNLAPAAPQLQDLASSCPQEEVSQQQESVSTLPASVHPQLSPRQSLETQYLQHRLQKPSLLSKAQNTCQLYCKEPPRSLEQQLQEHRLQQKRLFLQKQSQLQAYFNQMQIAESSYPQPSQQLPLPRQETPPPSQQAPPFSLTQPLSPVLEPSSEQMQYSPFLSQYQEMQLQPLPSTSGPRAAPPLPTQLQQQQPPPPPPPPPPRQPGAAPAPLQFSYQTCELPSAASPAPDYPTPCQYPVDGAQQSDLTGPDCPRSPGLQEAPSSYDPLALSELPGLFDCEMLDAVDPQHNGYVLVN
# Sequence of IGF1R (human) (P08069 whole entry, looked up): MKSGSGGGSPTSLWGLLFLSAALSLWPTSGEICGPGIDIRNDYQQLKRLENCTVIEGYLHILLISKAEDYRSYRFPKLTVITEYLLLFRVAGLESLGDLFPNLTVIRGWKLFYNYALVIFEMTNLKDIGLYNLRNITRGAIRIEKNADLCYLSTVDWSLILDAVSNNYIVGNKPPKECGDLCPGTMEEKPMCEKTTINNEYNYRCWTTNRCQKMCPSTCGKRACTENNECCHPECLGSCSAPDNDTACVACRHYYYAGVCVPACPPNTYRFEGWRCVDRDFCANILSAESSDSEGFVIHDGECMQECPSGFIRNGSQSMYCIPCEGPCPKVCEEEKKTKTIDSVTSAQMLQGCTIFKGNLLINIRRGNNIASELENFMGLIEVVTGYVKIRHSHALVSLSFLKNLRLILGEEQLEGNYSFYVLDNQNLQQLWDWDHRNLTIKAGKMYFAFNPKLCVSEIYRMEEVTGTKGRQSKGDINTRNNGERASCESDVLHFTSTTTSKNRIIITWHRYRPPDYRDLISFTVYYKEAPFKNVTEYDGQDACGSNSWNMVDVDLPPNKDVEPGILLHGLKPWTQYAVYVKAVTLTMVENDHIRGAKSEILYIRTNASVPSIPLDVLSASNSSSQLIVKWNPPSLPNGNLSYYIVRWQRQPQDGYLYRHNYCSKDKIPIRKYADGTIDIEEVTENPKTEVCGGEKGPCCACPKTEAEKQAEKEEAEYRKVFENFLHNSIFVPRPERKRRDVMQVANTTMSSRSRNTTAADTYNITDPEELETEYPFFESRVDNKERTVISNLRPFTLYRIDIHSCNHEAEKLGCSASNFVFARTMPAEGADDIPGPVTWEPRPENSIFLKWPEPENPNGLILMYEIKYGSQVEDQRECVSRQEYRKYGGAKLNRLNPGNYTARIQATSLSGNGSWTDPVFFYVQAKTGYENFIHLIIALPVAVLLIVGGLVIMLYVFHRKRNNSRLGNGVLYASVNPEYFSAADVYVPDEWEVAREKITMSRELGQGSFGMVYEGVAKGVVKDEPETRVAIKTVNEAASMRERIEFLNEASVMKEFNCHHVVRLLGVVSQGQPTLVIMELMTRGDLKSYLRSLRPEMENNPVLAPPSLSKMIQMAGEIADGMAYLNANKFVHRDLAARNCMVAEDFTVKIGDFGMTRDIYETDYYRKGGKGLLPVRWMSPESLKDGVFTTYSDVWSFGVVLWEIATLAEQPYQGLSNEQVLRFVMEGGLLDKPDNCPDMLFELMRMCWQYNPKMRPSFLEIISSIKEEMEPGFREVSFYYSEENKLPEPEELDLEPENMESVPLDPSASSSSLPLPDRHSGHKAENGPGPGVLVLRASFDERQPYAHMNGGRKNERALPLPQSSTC
# Sequence of CDK5 (human) (Q00535 whole entry, looked up): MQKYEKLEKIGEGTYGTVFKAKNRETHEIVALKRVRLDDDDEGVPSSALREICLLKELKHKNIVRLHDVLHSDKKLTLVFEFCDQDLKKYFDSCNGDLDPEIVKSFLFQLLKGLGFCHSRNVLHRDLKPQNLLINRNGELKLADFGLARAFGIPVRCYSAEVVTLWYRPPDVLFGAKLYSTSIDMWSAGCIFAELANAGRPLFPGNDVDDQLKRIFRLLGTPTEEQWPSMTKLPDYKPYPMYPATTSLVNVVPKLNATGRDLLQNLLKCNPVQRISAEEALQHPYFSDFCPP
# Sequence of NEK6 (human) (Q9HC98 whole entry, looked up): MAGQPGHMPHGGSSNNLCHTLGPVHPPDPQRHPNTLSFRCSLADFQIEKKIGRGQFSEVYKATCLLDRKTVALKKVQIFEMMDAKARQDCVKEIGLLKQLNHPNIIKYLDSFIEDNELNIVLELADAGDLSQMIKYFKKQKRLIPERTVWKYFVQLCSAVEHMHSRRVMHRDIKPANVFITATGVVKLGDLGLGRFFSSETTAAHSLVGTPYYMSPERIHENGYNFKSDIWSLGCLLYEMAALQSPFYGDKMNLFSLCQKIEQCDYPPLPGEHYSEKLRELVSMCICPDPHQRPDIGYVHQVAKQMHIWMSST
smiles,measurement,setting,value
CCS(=O)(=O)Nc1ccc2c(c1)[C@H](/C(=N/c1ccc(CN3CCCCC3)cc1)c1ccccc1)C(=O)N2,"kinase still bound, per cent of control",[1],7.2%
same,"kinase still bound, per cent of control",[2],0%
same,"kinase still bound, per cent of control",[3],16.8%
same,"kinase still bound, per cent of control",[4],0.25%
same,"kinase still bound, per cent of control",[5],0.85%
same,"kinase still bound, per cent of control",[6],0%
same,"kinase still bound, per cent of control",[7],0.5%
same,"kinase still bound, per cent of control",[8],0.7%
same,"kinase still bound, per cent of control",[9],0%
same,"kinase still bound, per cent of control",[10],0.1%
same,"kinase still bound, per cent of control",[11],0.2%
same,"kinase still bound, per cent of control",[12],0%
same,"kinase still bound, per cent of control",[13],0%
same,"kinase still bound, per cent of control",[14],0%
same,"kinase still bound, per cent of control",[15],28.3%
same,"kinase still bound, per cent of control",[16],0%
same,"kinase still bound, per cent of control",[17],no effect (inactive)
same,"kinase still bound, per cent of control",[18],0.1%
same,"kinase still bound, per cent of control",[19],0%
same,"kinase still bound, per cent of control",[20],0%
same,"kinase still bound, per cent of control",[21],0.4%
same,"kinase still bound, per cent of control",[22],0.75%
same,"kinase still bound, per cent of control",[23],0%
same,"kinase still bound, per cent of control",[24],0%
same,"kinase still bound, per cent of control",[25],0%
same,"kinase still bound, per cent of control",[26],0%
same,"kinase still bound, per cent of control",[27],0%
same,"kinase still bound, per cent of control",[28],7%
same,"kinase still bound, per cent of control",[29],0%
same,"kinase still bound, per cent of control",[30],0%
same,"kinase still bound, per cent of control",[31],no effect (inactive)
same,"kinase still bound, per cent of control",[32],0%
same,"kinase still bound, per cent of control",[33],no effect (inactive)
same,"kinase still bound, per cent of control",[34],no effect (inactive)
same,"kinase still bound, per cent of control",[35],0%
same,"kinase still bound, per cent of control",[36],1.4%
same,"kinase still bound, per cent of control",[37],0%
same,"kinase still bound, per cent of control",[38],0%
same,"kinase still bound, per cent of control",[39],0.8%
same,"kinase still bound, per cent of control",[40],0%
